Laboratory results reported in patent US10792633B2, “Composition comprising a fluorine-containing surfactant” (HWK-Kronbichler GmbH, priority 2016, dated 2020).
Converted amounts (≈) assume the structure as drawn. Read-outs that look alike come from different tables or passages of the source. Marks after values point to notes of the source that are not given here. Blank lines part the entries; values can stand above or below the compound they belong to.

Legend:
Format in all cases: physicochemical
[1] = Determining the solubility in water; settings: for solubility at 5 min: water, 23 °C, thermodynamic from solid
Protocol: The suspension was added to the ultrasound bath for 5 minutes and was centrifuged for 20 minutes. The supernatant was then weighed and was rinsed with argon for 5 minutes to remove any possibly dissolved oxygen. […] The experiment was performed at approximately 23° C.

[2] = Solubility in organic solvents
[3] = Use as an emulsifying agent for Teflon (stability of the suspension in water); settings: 0.100 g surfactant and 0.200 g Teflon 1 μm in water
Protocol: A solution of 10 ml water, 0.100 g 1-methyl-2-((1H,1H,2H,2H-perfluorooctyl)thio)-1H-imidazolium-2-acrylamido-2-methylpropanesulfonate was dissolved in 10 ml water and 0.200 g Teflon 1 μm (Sigmal-Aldrich) were subsequently added to this solution. A suspension was formed in this process that remained stable for at least 4 hours. After 2 days a white powder had been deposited on the bottom.

[4] = Determination of the static surface tension in water (Example 10); settings: mean of 10
Text: The determination of the static surface tension for 3-(1H,1H,2H,2H-perfluorooctyl)-2-((1H,1H,2H,2H-perfluorooctyl)thio)-1-methyl-1H-imidazolium chloride in water produced the values indicated in the following Table 6 for the surface tension (OFS) in […] at different concentrations c in wt %. The values for OFS represent the mean value from 10 measurements. The standard deviation S [mN/m] for these values is likewise indicated.

[5] = Measurement of surface tension at suspended drop (Drop Shape Analyser DSA 25)
Protocol: The surface tension was determined at suspended drop using a “Drop Shape Analyser DSA 25” of the Krüss corporation. The drop volume at most measurements amounted to approximately 5 μl. […] Each sample was measured a total of ten times. The standard deviations are marked by s in the table shown below. In the measurements at a concentration of 0.05 wt % surfactant, larger drop volumes were used in some cases to obtain a better reproducibility of the measurement results.

[6] = surfactant in water 0.05 wt %, n = 10, drop approx. 5 μl, * 8 μl, ** 20 μl
[7] = surfactant in water 0.5 wt %, n = 10, 24.5-25.1° C.

Compound: Cl.Cn1ccnc1SCCC(F)(F)C(F)(F)C(F)(F)C(F)(F)C(F)(F)C(F)(F)F [1-methyl-2-((1H,1H,2H,2H-perfluorooctyl)thio)imidazoliumchloride]
- Solubility in water ([1]; values not exact): 1750 mg/mL

- Solubility in 3M Novec 71 IPA [2]: 20.5 mg/mL
Compound: 1-methyl-2-((perfluorohexylethyl)thio)imidazoliumiodide-Co-1-iodoperfluorooctylane [1-iodoperfluorooctyl-Co-complex]

Compound: Br.Cn1ccnc1SCCC(F)(F)C(F)(F)C(F)(F)C(F)(F)C(F)(F)C(F)(F)F [1-methyl-2-((1H,1H,2H,2H-perfluorooctyl)thio)imidazoliumbromide]
- Solubility in water ([1]; values not exact): 1200 mg/mL

Compound: C=CC(=O)NC(C)(C)CS(=O)(=O)O.Cn1ccnc1SCCC(F)(F)C(F)(F)C(F)(F)C(F)(F)C(F)(F)C(F)(F)F [Synthesis Example 2, 1-methyl-2-((1H,1H,2H,2H-perfluorooctyl)thio)-1H-imidazolium-2-acrylamido-2-methylpropanesulfonate]
- time the Teflon suspension remained stable [3]: at least 4 hours
- soluble in water (in words) [1]: soluble in water

- OFS (static surface tension) ([4]; c 0.0025 wt % in water): 40.74 mN/m
- OFS (static surface tension) ([4]; c 0.0050 wt % in water): 21.29 mN/m
- OFS (static surface tension) ([4]; c 0.0075 wt % in water): 18.89 mN/m
- OFS (static surface tension) ([4]; c 0.0100 wt % in water): 16.29 mN/m
- OFS (static surface tension) ([4]; c 0.0250 wt % in water): 14.43 mN/m
- OFS (static surface tension) ([4]; c 0.0500 wt % in water): 15.05 mN/m
- OFS (static surface tension) ([4]; c 0.0750 wt % in water): 15.02 mN/m
- OFS (static surface tension) ([4]; c 0.1000 wt % in water): 15 mN/m
- OFS (static surface tension) ([4]; c 0.2500 wt % in water): 15.5 mN/m
- OFS (static surface tension) ([4]; c 0.5000 wt % in water): 14.5 mN/m
Compound: Cn1cc[n+](CCC(F)(F)C(F)(F)C(F)(F)C(F)(F)C(F)(F)C(F)(F)F)c1SCCC(F)(F)C(F)(F)C(F)(F)C(F)(F)C(F)(F)C(F)(F)F.[Cl-] [3-(1H,1H,2H,2H-perfluorooctyl)-2-((1H,1H,2H,2H-perfluorooctyl)thio)-1-methyl-1H-imidazolium chloride]

- OFS (surface tension) [5, 6]: 64.87** mN/m
- OFS (surface tension) [5, 7]: 46.42 mN/m
Compound: N.O=C(O)C(F)(F)C(F)OC(F)(F)C(F)(F)C(F)(F)OC(F)(F)F (centres unmarked) [Ammonium-4,8-dioxa-3H-perfluorononanoate, reference compound]

Compound: 1-methyl-2-((1H,1H,2H,2H-perfluorooctyl)thio)-1H-imidazolium-2-(methacryloyloxy)ethane-1-sulfonate [Synthesis Example 1]
- OFS (surface tension) ([5]; c 0.005 % in water): 70.28 mN/m
- OFS (surface tension) ([5]; c 0.01 % in water): 32.11 mN/m
- OFS (surface tension) ([5]; c 0.1 % in water): 20.8 mN/m
- OFS (surface tension) [5, 6]: 23.24 mN/m
- OFS (surface tension) [5, 7]: 16.22 mN/m
- Solubility in water ([1]; approximately 23° C., ultrasound bath 5 minutes, centrifuged 20 minutes): approximately 430 g/L

Compound: Cn1cc[n+](CCCS(=O)(=O)[O-])c1SCCC(F)(F)C(F)(F)C(F)(F)C(F)(F)C(F)(F)C(F)(F)F [Synthesis Example 6, 3-(1-methyl-2-((1H,1H,2H,2H-perfluorooctyl)thio)imidazolium-3-yl) propane-1-sulfonate]
- OFS (surface tension) [5, 6]: 29.74* mN/m
- OFS (surface tension) [5, 7]: 24.94 mN/m
- solubility at 5 min ([1]; values not exact, read-out: Solubility in water): 160 mg/mL (≈ 275 mM)
- solubility at 5 min ([1]; read-out: water solubility): ~160 mg/mL (≈ 275 mM)

Compound: CS(=O)(=O)O.Cn1ccnc1SCCC(F)(F)C(F)(F)C(F)(F)C(F)(F)C(F)(F)C(F)(F)F [1-methyl-2-((1H,1H,2H,2H-perfluorooctyl)thio)-1H-imidazolium-methanesulfonate]
- OFS (surface tension) [5, 6]: 24.39 mN/m
- OFS (surface tension) [5, 7]: 16.21 mN/m

Compound: CC1(C)C2CCC1(CS(=O)(=O)O)C(=O)C2.Cn1ccnc1SCCC(F)(F)C(F)(F)C(F)(F)C(F)(F)C(F)(F)C(F)(F)F [1-methyl-2-((1H,1H,2H,2H-perfluorooctyl)thio)imidazolium-(±)-camphor-10-sulfonate]
- Solubility in water ([1]; values not exact): >4000 mg/mL

Compound: O=C(O)C(F)(F)C(F)(F)C(F)(F)C(F)(F)C(F)(F)C(F)(F)C(F)(F)F [Perfluorooctanoic acid, reference compound]
- OFS (surface tension) [5, 6]: 55.68** mN/m
- OFS (surface tension) [5, 7]: 16 mN/m
